Measurements from PubChem BioAssay AID2060887 (Molecular Pharmacology Branch, DTP, NCI, 2025).
Blank lines part the entries; values can stand above or below the molecule they belong to.

Test system: 782815-120-R-J1-PDC complex spheroid viability
Experiment: Anticancer human tumor 782815-120-R-J1-PDC patient-derived colon adenocarcinoma cell line growth inhibition [RAS]
Settings: for IC50: curve of first compound; for viability, T/C: stronger effect = lower value
In short: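 Tumour cells grown as complex spheroids with HUVEC endothelial cells and mesenchymal stem cells, treated with RAS pathway inhibitor combinations. Each agent spans half-log steps from near clinical Cmax, or 10 microM where Cmax is unknown.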

[1] = second compound 0.000949 µM, first compound 0.0316 µM
[2] = second compound 0.000949 µM, first compound 0.1 µM
[3] = second compound 0.003 µM, first compound 0.0316 µM
[4] = second compound 0.003 µM, first compound 0.1 µM
[5] = second compound 0.00949 µM, first compound 0.0316 µM
[6] = second compound 0.00949 µM, first compound 0.1 µM
[7] = second compound 0.03 µM, first compound 0.0316 µM
[8] = second compound 0.03 µM, first compound 0.1 µM
[9] = second compound 0.0949 µM, first compound 0.0316 µM
[10] = second compound 0.0949 µM, first compound 0.1 µM
[11] = second compound 0.3 µM, first compound 0.0316 µM
[12] = second compound 0.3 µM, first compound 0.1 µM
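Further: spheroids exposed to compounds for 7 days before reading.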
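Wherever viability, T/C is given: 100% = DMSO vehicle control viability.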

IC50 (second compound 0.000949 µM): > 10 µM
IC50 (second compound 0.003 µM): > 10 µM
IC50 (second compound 0.00949 µM): > 10 µM
IC50 (second compound 0.03 µM): > 10 µM
IC50 (second compound 0.0949 µM): > 10 µM
IC50 (second compound 0.3 µM): > 10 µM
Compound: CC(C)NCC(C(=O)N1CCN(c2ncnc3c2C(C)CC3O)CC1)c1ccc(Cl)cc1 (centres undefined) + CCn1c(-c2cccnc2C(C)OC)c2c3cc(ccc31)N1CCOC(CC(NC(=O)C(C(C)C)N(C)C(=O)C3(F)CCN(C(=O)C#CC(C)(C)N(C)C)CC3)C(=O)N3CCCC(N3)C(=O)OCC(C)(C)C2)C1
viability, T/C [1]: 90.6%
viability, T/C [2]: 90.6%
viability, T/C (second compound 0.000949 µM, first compound 0.316 µM): 104%
viability, T/C (second compound 0.000949 µM, first compound 1 µM): 88.8%
viability, T/C (second compound 0.000949 µM, first compound 3.16 µM): 97.8%
viability, T/C (second compound 0.000949 µM, first compound 10 µM): 104%
viability, T/C [3]: 86.3%
viability, T/C [4]: 98.3%
viability, T/C (second compound 0.003 µM, first compound 0.316 µM): 97%
viability, T/C (second compound 0.003 µM, first compound 1 µM): 91.5%
viability, T/C (second compound 0.003 µM, first compound 3.16 µM): 98.2%
viability, T/C (second compound 0.003 µM, first compound 10 µM): 97.5%
viability, T/C [5]: 95.4%
viability, T/C [6]: 95.9%
viability, T/C (second compound 0.00949 µM, first compound 0.316 µM): 99.7%
viability, T/C (second compound 0.00949 µM, first compound 1 µM): 93.3%
viability, T/C (second compound 0.00949 µM, first compound 3.16 µM): 104%
viability, T/C (second compound 0.00949 µM, first compound 10 µM): 104%
viability, T/C [7]: 105%
viability, T/C [8]: 90.6%
viability, T/C (second compound 0.03 µM, first compound 0.316 µM): 91.9%
viability, T/C (second compound 0.03 µM, first compound 1 µM): 94.9%
viability, T/C (second compound 0.03 µM, first compound 3.16 µM): 97.2%
viability, T/C (second compound 0.03 µM, first compound 10 µM): 96.7%
viability, T/C [9]: 97.1%
viability, T/C [10]: 97.2%
viability, T/C (second compound 0.0949 µM, first compound 0.316 µM): 91.9%
viability, T/C (second compound 0.0949 µM, first compound 1 µM): 95.1%
viability, T/C (second compound 0.0949 µM, first compound 3.16 µM): 107%
viability, T/C (second compound 0.0949 µM, first compound 10 µM): 101%
viability, T/C [11]: 93.4%
viability, T/C [12]: 93.8%
viability, T/C (second compound 0.3 µM, first compound 0.316 µM): 90.4%
viability, T/C (second compound 0.3 µM, first compound 1 µM): 93.2%
viability, T/C (second compound 0.3 µM, first compound 3.16 µM): 97.2%
viability, T/C (second compound 0.3 µM, first compound 10 µM): 92.4%

IC50 (second compound 0.000949 µM): > 0.1 µM
IC50 (second compound 0.003 µM): > 0.1 µM
IC50 (second compound 0.00949 µM): > 0.1 µM
IC50 (second compound 0.03 µM): > 0.1 µM
IC50 (second compound 0.0949 µM): > 0.1 µM
IC50 (second compound 0.3 µM): > 0.1 µM
Compound: CC(C)n1nc(-c2ccc3oc(N)nc3c2)c2c(N)ncnc21 + CCn1c(-c2cccnc2C(C)OC)c2c3cc(ccc31)N1CCOC(CC(NC(=O)C(C(C)C)N(C)C(=O)C3(F)CCN(C(=O)C#CC(C)(C)N(C)C)CC3)C(=O)N3CCCC(N3)C(=O)OCC(C)(C)C2)C1
viability, T/C (second compound 0.000949 µM, first compound 0.000316 µM): 88.2%
viability, T/C (second compound 0.000949 µM, first compound 0.001 µM): 90.7%
viability, T/C (second compound 0.000949 µM, first compound 0.00316 µM): 93%
viability, T/C (second compound 0.000949 µM, first compound 0.01 µM): 88.2%
viability, T/C [1]: 88.1%
viability, T/C [2]: 76.3%
viability, T/C (second compound 0.003 µM, first compound 0.000316 µM): 91.5%
viability, T/C (second compound 0.003 µM, first compound 0.001 µM): 107%
viability, T/C (second compound 0.003 µM, first compound 0.00316 µM): 91.7%
viability, T/C (second compound 0.003 µM, first compound 0.01 µM): 86.4%
viability, T/C [3]: 84.8%
viability, T/C [4]: 78.2%
viability, T/C (second compound 0.00949 µM, first compound 0.000316 µM): 94.8%
viability, T/C (second compound 0.00949 µM, first compound 0.001 µM): 102%
viability, T/C (second compound 0.00949 µM, first compound 0.00316 µM): 87.3%
viability, T/C (second compound 0.00949 µM, first compound 0.01 µM): 94.3%
viability, T/C [5]: 87.3%
viability, T/C [6]: 70.7%
viability, T/C (second compound 0.03 µM, first compound 0.000316 µM): 87%
viability, T/C (second compound 0.03 µM, first compound 0.001 µM): 99.9%
viability, T/C (second compound 0.03 µM, first compound 0.00316 µM): 94.1%
viability, T/C (second compound 0.03 µM, first compound 0.01 µM): 93.6%
viability, T/C [7]: 106%
viability, T/C [8]: 70.5%
viability, T/C (second compound 0.0949 µM, first compound 0.000316 µM): 87.7%
viability, T/C (second compound 0.0949 µM, first compound 0.001 µM): 95.2%
viability, T/C (second compound 0.0949 µM, first compound 0.00316 µM): 99.6%
viability, T/C (second compound 0.0949 µM, first compound 0.01 µM): 83.7%
viability, T/C [9]: 87.8%
viability, T/C [10]: 78.8%
viability, T/C (second compound 0.3 µM, first compound 0.000316 µM): 90.9%
viability, T/C (second compound 0.3 µM, first compound 0.001 µM): 92.1%
viability, T/C (second compound 0.3 µM, first compound 0.00316 µM): 86.1%
viability, T/C (second compound 0.3 µM, first compound 0.01 µM): 90.2%
viability, T/C [11]: 90.6%
viability, T/C [12]: 69.2%
